Reference: ChEMBL document CHEMBL5291721, “A preclinical secondary pharmacology resource illuminates target-adverse drug reaction associations of marketed drugs” (Nat Commun, 2023)

Key:
[1] = biological target: T1, Alpha-1A adrenergic receptor (Homo sapiens, UniProt P35348); assay type: functional, cell-based
T1 sequence (P35348 whole entry): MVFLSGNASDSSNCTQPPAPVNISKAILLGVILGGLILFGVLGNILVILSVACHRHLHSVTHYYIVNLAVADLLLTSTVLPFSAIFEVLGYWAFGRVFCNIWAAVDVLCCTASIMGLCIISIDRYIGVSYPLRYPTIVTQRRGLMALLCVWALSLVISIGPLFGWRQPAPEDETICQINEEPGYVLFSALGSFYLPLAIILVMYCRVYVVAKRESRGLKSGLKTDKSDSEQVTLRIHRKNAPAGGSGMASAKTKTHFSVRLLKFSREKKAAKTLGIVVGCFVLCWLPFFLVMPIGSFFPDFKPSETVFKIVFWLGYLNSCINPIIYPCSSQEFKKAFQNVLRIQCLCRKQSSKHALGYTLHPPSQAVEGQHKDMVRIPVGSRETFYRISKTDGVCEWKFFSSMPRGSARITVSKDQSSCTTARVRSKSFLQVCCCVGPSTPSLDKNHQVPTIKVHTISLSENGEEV

[2] = biological target: T2, Alpha-2A adrenergic receptor (Homo sapiens, UniProt P08913)
T2 sequence (P08913 whole entry): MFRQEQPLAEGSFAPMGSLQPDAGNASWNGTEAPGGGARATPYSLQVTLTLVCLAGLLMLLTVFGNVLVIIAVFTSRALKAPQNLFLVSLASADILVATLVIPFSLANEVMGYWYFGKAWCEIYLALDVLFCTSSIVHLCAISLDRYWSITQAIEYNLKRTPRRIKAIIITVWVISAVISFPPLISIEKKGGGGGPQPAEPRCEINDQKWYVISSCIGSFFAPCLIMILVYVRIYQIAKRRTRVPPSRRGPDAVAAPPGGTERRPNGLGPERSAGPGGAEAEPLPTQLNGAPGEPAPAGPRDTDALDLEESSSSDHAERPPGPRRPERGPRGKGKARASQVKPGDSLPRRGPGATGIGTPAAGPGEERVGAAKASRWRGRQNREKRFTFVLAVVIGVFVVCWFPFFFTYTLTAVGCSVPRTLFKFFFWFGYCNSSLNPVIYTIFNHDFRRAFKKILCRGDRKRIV

D(1A) dopamine receptor = D(1A) dopamine receptor (Homo sapiens, UniProt P21728)
Estrogen receptor = biological target: T3, Estrogen receptor (Homo sapiens, UniProt P03372)
T3 sequence (P03372 whole entry): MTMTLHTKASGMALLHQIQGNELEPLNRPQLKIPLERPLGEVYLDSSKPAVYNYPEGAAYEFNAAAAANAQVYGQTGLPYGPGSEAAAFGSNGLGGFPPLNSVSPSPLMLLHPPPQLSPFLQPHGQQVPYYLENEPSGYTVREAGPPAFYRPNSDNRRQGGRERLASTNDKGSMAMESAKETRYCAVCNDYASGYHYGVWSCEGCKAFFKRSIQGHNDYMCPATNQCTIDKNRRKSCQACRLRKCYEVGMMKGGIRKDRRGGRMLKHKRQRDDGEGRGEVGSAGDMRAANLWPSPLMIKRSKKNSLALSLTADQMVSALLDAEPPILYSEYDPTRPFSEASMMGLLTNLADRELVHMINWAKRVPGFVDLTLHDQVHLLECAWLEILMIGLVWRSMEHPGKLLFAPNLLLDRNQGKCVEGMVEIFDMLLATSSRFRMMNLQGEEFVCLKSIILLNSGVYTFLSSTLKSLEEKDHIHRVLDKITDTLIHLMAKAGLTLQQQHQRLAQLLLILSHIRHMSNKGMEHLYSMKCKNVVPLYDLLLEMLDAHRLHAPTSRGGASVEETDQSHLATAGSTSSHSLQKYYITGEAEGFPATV

Prothrombin = Prothrombin (Homo sapiens, UniProt P00734); assay type: functional
Histamine H3 receptor = Histamine H3 receptor (Homo sapiens, UniProt Q9Y5N1)
[3] = biological target: 5-hydroxytryptamine receptor 2B (Homo sapiens, UniProt P41595); assay type: functional, cell-based
[4] = biological target: Voltage-gated inwardly rectifying potassium channel KCNH2 (Homo sapiens, UniProt Q12809); assay type: functional; settings: read-out: AC50
[5] = biological target: T4, Amine oxidase [flavin-containing] A (Homo sapiens, UniProt P21397); assay type: functional
T4 sequence (P21397 whole entry): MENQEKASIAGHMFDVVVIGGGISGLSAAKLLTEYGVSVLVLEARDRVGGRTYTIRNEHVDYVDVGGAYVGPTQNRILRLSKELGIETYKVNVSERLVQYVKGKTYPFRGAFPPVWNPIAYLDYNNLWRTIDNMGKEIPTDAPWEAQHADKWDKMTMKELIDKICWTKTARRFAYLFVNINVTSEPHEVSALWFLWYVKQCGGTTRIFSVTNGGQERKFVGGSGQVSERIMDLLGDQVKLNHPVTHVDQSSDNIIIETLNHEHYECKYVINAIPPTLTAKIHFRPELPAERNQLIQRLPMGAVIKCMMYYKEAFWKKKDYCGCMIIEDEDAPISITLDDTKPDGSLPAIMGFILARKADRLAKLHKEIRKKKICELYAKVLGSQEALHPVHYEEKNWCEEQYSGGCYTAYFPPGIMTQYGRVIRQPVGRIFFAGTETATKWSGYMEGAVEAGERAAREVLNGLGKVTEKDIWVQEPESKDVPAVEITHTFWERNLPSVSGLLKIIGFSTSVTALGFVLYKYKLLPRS

Mu-type opioid receptor = Mu-type opioid receptor (Homo sapiens, UniProt P35372)
[6] = biological target: Prostaglandin G/H synthase 1 (Homo sapiens, UniProt P23219); assay type: functional
[7] = biological target: Sodium-dependent noradrenaline transporter (Homo sapiens, UniProt P23975)
[8] = biological target: Sodium-dependent dopamine transporter (Homo sapiens, UniProt Q01959)
Thromboxane A2 receptor = biological target: T5, Thromboxane A2 receptor (Homo sapiens, UniProt P21731); assay type: functional, cell-based
T5 sequence (P21731 whole entry): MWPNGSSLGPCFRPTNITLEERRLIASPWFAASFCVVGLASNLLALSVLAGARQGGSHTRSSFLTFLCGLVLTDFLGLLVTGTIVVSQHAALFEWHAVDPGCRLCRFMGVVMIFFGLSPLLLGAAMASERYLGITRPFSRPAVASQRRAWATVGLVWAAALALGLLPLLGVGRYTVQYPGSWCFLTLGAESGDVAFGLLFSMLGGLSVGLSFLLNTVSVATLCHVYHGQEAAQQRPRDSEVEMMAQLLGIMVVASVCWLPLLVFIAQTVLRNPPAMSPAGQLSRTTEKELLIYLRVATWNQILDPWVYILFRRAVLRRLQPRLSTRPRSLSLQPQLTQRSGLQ
Also: assay procedure not described here.

Chain of 5-hydroxytryptamine receptor 2B (P41595 whole entry): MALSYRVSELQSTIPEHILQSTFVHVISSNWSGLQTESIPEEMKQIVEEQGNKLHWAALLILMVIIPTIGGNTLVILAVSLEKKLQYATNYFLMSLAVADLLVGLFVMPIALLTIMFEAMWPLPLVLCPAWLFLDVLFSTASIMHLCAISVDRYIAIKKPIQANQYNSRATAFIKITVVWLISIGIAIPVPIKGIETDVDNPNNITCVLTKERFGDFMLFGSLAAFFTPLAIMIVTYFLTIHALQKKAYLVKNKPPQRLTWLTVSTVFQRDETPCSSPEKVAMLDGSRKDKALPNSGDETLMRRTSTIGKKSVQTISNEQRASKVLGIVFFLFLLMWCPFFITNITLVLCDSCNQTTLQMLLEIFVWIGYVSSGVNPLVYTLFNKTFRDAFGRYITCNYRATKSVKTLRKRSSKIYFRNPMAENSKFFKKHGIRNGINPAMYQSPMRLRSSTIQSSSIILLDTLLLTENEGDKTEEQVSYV
Chain of D(1A) dopamine receptor (P21728 whole entry): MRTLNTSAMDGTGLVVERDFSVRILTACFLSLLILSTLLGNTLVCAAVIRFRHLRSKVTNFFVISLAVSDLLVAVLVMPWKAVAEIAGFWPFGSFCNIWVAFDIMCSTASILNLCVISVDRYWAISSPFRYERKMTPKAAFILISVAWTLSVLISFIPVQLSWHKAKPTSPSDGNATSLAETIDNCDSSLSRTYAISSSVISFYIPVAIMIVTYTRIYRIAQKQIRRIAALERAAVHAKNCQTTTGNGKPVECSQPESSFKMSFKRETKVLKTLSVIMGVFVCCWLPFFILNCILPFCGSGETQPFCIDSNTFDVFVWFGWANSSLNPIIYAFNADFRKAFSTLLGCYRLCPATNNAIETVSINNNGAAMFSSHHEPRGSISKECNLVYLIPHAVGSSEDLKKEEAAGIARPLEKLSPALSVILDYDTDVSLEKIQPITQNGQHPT
Chain of Mu-type opioid receptor (P35372 whole entry): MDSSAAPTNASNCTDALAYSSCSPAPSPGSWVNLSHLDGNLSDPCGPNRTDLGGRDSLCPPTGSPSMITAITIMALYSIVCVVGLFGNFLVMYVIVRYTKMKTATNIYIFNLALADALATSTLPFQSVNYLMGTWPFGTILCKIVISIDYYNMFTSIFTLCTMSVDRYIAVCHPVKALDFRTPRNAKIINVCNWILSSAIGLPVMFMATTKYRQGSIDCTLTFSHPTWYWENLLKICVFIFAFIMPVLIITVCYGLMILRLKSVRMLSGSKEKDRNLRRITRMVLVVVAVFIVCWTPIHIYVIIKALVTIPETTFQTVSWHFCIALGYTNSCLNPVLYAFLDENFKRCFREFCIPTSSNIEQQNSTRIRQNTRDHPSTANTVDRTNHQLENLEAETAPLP
Chain of Sodium-dependent noradrenaline transporter (P23975 whole entry): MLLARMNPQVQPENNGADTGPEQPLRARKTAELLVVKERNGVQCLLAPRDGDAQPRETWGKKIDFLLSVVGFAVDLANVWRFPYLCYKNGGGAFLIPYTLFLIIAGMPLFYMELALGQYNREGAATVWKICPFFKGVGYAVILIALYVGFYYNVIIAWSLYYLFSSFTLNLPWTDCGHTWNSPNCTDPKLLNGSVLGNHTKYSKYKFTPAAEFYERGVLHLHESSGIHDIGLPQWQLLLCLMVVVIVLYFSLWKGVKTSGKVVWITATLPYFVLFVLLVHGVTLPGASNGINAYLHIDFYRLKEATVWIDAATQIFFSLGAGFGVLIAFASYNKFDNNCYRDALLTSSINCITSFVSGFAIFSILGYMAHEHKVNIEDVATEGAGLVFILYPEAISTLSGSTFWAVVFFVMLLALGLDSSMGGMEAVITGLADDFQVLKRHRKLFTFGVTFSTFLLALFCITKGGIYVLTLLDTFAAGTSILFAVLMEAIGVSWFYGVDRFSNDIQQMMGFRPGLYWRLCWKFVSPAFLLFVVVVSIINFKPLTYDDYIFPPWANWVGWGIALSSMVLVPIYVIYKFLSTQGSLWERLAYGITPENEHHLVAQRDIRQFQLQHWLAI
Chain of Prostaglandin G/H synthase 1 (P23219 whole entry): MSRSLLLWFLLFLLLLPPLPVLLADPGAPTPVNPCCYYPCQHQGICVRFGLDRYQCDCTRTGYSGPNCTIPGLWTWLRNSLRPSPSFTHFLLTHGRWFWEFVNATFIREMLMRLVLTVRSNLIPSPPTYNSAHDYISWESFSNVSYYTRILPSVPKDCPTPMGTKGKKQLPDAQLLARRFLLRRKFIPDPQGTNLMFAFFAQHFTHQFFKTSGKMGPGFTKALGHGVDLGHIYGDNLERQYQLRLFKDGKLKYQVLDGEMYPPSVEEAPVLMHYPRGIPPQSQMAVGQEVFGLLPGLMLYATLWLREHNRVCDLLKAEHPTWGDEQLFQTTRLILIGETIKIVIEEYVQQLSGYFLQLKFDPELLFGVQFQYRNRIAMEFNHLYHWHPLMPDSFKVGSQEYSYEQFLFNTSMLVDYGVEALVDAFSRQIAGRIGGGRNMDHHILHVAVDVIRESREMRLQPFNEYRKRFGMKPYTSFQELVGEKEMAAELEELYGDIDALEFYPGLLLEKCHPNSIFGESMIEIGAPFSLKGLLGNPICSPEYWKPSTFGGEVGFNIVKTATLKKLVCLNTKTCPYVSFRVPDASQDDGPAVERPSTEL
Chain of Sodium-dependent dopamine transporter (Q01959 whole entry): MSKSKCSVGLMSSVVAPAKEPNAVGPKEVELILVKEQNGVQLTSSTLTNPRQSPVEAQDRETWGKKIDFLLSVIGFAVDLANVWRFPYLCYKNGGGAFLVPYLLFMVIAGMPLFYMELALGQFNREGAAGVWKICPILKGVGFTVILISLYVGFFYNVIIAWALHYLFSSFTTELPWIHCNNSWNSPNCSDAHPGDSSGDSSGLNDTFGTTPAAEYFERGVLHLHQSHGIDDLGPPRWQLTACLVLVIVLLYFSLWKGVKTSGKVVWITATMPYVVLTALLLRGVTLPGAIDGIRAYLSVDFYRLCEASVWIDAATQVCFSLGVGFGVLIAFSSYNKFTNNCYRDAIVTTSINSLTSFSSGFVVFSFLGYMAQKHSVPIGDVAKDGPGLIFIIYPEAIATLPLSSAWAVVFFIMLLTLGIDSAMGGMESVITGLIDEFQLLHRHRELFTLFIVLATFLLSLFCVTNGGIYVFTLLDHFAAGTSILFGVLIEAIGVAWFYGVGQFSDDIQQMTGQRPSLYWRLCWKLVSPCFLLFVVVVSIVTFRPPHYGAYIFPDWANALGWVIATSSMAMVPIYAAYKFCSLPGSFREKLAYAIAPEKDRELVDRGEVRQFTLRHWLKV
Chain of Voltage-gated inwardly rectifying potassium channel KCNH2 (Q12809 whole entry): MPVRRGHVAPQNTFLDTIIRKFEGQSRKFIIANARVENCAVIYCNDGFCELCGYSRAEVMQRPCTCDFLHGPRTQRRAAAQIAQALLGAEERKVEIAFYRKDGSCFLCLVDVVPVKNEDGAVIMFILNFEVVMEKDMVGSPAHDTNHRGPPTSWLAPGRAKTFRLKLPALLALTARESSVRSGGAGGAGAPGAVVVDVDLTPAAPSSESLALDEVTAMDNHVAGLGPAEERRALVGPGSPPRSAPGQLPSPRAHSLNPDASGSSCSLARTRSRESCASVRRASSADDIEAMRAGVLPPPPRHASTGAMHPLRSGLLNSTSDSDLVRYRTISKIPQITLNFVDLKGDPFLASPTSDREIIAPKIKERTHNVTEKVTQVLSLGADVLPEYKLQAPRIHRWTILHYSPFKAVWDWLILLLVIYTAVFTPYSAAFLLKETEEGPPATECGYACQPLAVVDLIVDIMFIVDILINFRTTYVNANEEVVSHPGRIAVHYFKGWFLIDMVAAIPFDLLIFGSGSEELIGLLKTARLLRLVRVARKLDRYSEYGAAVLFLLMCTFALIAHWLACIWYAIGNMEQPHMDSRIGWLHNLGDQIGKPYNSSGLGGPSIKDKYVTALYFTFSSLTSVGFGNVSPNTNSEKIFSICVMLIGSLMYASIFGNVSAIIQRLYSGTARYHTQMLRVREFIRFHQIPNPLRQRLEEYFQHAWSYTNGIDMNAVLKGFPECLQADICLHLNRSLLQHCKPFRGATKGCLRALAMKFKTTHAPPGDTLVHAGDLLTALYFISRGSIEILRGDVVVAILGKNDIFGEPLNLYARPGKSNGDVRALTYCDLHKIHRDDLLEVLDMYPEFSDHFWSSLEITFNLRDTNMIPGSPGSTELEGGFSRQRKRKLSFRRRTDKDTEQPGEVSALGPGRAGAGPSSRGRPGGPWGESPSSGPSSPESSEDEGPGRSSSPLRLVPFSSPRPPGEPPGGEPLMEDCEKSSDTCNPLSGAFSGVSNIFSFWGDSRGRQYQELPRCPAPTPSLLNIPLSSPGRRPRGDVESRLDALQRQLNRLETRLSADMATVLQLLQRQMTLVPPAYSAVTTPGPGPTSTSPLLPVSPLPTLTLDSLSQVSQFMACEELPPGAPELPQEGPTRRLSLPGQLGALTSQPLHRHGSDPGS
Chain of Histamine H3 receptor (Q9Y5N1 whole entry): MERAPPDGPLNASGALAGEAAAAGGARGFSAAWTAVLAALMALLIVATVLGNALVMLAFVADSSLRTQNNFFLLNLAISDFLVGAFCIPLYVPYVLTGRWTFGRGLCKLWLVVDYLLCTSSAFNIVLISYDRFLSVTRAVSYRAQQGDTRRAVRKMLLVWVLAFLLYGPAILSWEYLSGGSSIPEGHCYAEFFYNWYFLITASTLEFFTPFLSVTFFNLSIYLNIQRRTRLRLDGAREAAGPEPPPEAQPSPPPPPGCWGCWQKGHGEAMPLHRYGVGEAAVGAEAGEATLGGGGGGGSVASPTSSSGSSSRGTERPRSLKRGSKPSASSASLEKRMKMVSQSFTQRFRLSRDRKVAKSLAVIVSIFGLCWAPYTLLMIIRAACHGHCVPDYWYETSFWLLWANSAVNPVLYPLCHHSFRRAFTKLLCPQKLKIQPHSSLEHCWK

Row | Structure (SMILES) | AC50 [1] [µM] | AC50 [2] [µM] | AC50 (D(1A) dopamine receptor) [µM] | AC50 (Estrogen receptor) [µM] | AC50 (Prothrombin) [µM] | AC50 (Histamine H3 receptor) [µM] | AC50 [3] [µM] | AC50 [4] [µM] | AC50 [5] [µM] | AC50 (Mu-type opioid receptor) [µM] | AC50 [6] [µM] | AC50 [7] [µM] | AC50 [8] [µM] | AC50 (Thromboxane A2 receptor) [µM]
1 | C[C@H]1O[C@@H](O[C@H]2[C@@H](O)C[C@H](O[C@H]3[C@@H](O)C[C@H](O[C@H]4CC[C@@]5(C)[C@H](CC[C@@H]6[C@@H]5CC[C@]5(C)[C@@H](C7=CC(=O)OC7)CC[C@]65O)C4)O[C@@H]3C)O[C@@H]2C)C[C@H](O)[C@@H]1O [DIGITOXIN] | > 30 | > 30 | > 30 | > 30 | > 30 | > 30 | > 30 | > 30 | > 30 | > 30 | > 30 | > 30 | > 30 | > 30
2 | OC(CCCN1CCCCC1)(c1ccccc1)c1ccccc1 [DIPHENIDOL] | > 30 | > 30 | 12.5 | > 30 | > 30 | > 30 | > 30 | 16 | > 30 | 25.2 | > 30 | > 30 | > 30 | > 30
3 | CCn1cc(C(=O)O)c(=O)c2cc(F)c(N3CCNCC3)nc21 [ENOXACIN] | > 30 | > 30 | > 30 | > 30 | > 30 | > 30 | > 30 | > 30 | > 30 | > 30 | > 30 | > 30 | > 30 | > 30
4 | C[C@@H](O)[C@H]1C(=O)N2C(C(=O)O)=C([C@H]3CCCO3)S[C@H]12 [FAROPENEM] | > 30 | > 30 | > 30 | > 30 | > 30 | > 30 | > 30 | > 30 | > 30 | > 30 | 14.7 | > 30 | > 30 | > 30
5 | CCOC(=O)c1ccc(OC(=O)CCCCCNC(=N)N)cc1 [GABEXATE] | > 30 | > 30 | > 30 | > 30 | 0.17 | > 30 | > 30 | 25 | > 30 | > 30 | > 30 | 9.03 | 14.8 | > 30
6 | COCCOc1cnc(NS(=O)(=O)c2ccccc2)nc1 [GLYMIDINE] | > 30 | > 30 | > 30 | > 30 | > 30 | > 30 | > 30 | > 30 | > 30 | > 30 | > 30 | > 30 | > 30 | > 30
7 | CCC(=O)O[C@]1(C(=O)COC(C)=O)CC[C@H]2[C@@H]3CCC4=CC(=O)CC[C@]4(C)[C@H]3[C@@H](O)C[C@@]21C [HYDROCORTISONE ACEPONATE] | > 30 | > 30 | > 30 | > 30 | > 30 | > 30 | > 30 | > 30 | > 30 | > 30 | > 30 | > 30 | > 30 | > 30
8 | O=[N+]([O-])O[C@H]1CO[C@H]2[C@@H]1OC[C@H]2O[N+](=O)[O-] [ISOSORBIDE DINITRATE] | > 30 | > 30 | > 30 | > 30 | > 30 | > 30 | > 30 | > 30 | > 30 | > 30 | > 30 | > 30 | > 30 | > 30
